# Laboratory results published in publication PMC6637425 (ChemMedChem, 2019).
# Read-outs that look alike come from different tables or passages of the source.
# How the values were obtained:
# BACE1 enzyme = BACE1 enzyme (Homo sapiens, UniProt P56817); assay: BACE1 enzyme inhibition, Ki from kinetic data under tight-binding conditions; assay type: biochemical; details: for selectivity for BACE1 against BACE2: ratio of Ki values
# BACE2 enzyme = molecular target: T1, BACE2 enzyme (Homo sapiens, UniProt Q9Y5Z0); assay: BACE2 enzyme inhibition, Ki from kinetic data under tight-binding conditions; assay type: biochemical; details: for selectivity for BACE2 over BACE1: ratio of Ki values
# T1 sequence (Q9Y5Z0 63-518): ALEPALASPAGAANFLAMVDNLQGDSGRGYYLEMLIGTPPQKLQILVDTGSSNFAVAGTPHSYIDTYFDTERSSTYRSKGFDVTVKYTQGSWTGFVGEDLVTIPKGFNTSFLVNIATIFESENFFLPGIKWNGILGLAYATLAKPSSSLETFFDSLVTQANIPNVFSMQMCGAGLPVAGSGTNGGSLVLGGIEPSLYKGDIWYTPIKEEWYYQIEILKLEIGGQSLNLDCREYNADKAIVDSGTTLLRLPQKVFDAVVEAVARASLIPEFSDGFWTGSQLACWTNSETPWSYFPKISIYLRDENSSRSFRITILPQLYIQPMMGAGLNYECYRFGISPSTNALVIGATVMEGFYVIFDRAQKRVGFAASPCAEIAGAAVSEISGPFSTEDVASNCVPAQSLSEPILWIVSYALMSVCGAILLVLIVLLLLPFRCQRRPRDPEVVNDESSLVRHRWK
# [1] = read-out: Ki (nM) BACE1, Table 2
# [2] = read-out: Ki (nM) BACE2, Table 2
# [3] = read-out: Ki (nM) BACE1, Table 3
# [4] = read-out: Ki (nM) BACE2, Table 3
# BACE1 enzyme, sequence (P56817 46-501): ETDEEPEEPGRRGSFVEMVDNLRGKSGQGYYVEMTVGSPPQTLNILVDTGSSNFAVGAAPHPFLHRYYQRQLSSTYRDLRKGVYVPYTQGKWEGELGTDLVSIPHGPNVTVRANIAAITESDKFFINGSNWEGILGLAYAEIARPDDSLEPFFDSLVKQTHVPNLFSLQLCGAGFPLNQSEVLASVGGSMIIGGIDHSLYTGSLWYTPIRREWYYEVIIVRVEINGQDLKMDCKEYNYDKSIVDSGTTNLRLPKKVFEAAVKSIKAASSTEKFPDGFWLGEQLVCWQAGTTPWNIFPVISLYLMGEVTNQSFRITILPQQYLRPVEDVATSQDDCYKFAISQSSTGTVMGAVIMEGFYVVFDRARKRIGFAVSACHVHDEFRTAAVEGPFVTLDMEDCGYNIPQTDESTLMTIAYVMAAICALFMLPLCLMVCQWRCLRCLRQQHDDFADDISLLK
structure (smiles),measurement,setting,value
"COc1cccc([C@@H](NC[C@@H](O)[C@H](Cc2ccccc2)NC(=O)c2cccc(C(=O)N(C)[C@H](C)c3ccccc3)c2)[C@H](C)O)c1 [inhibitor 3c, N^1-((2S,3R)-3-Hydroxy-4-(((1R,2S)-2-hydroxy-1-(3-methoxyphenyl)propyl)ammo)-1-phenylbutan-2-yl)-N^3-methyl-N^3-((R)-1-phenylethyl)isophthalamide]",Ki,BACE1 enzyme; [1],51300 nM
same,selectivity for BACE2 over BACE1,BACE2 enzyme,54 fold
same,Ki,BACE2 enzyme; [2],950 nM
"COc1cccc([C@@H](NC[C@@H](O)[C@H](Cc2ccccc2)NC(=O)c2cc(C)cc(C(=O)N(C)[C@H](C)c3ccccc3)c2)[C@H](C)O)c1 [inhibitor 3d, N^1-((2S,3R)-3-Hydroxy-4-(((1R,2S)-2-hydroxy-1-(3-methoxyphenyl)propyl)amino)-1-phenylbutan-2-yl)-N^3,5-dimethyl-N^3-((R)-1-phenylethyl)isophthalamide]",Ki,"BACE1 enzyme; Ki (nM) BACE1, Table 2",16200 nM
same,Ki,"BACE2 enzyme; Ki (nM) BACE2, Table 2",480 nM
same,selectivity for BACE2 over BACE1,BACE2 enzyme,34 fold
"CCC[C@H](O)[C@H](NC[C@@H](O)[C@H](Cc1ccccc1)NC(=O)c1cccc(C(=O)N(C)[C@H](C)c2ccccc2)c1)c1cccc(OC)c1 [inhibitor 3e, N^1-((2S,3R)-3-Hydroxy-4-(((1R,2S)-2-hydroxy-1-(3-methoxyphenyl)pentyl)amino)-1-phenylbutan-2-yl)-N^3-methyl-N^3-((R)-1-phenylethyl)isophthalamide]",Ki,"BACE1 enzyme; Ki (nM) BACE1, Table 2",38600 nM
same,Ki,"BACE2 enzyme; Ki (nM) BACE2, Table 2",243 nM
same,selectivity for BACE2 over BACE1,BACE2 enzyme,159 fold
"CCC[C@H](O)[C@H](NC[C@@H](O)[C@H](Cc1ccccc1)NC(=O)c1cc(C)cc(C(=O)N(C)[C@H](C)c2ccccc2)c1)c1cccc(OC)c1 [inhibitor 3f, N^1-((2S,3R)-3-Hydroxy-4-(((1R,2S)-2-hydroxy-1-(3-methoxyphenyl)pentyl)ammo)-1-phenylbutan-2-yl)-N^3,5-dimethyl-N^3-((R)-1-phenylethyl)isophthalamide]",Ki,BACE1 enzyme; [1],8800 nM
same,selectivity for BACE2 over BACE1,BACE2 enzyme,62 fold
same,Ki,BACE2 enzyme; [2],141 nM
"CCC[C@H](O)[C@H](NC[C@@H](O)[C@H](Cc1ccccc1)NC(=O)c1cccc(C(=O)N(C)[C@H](C)c2ccccc2)c1)c1ccccc1 [inhibitor 3g, N^1-((2S,3R)-3-Hydroxy-4-(((1R,2S)-2-hydroxy-1-phenylpentyl)ammo)-1-phenylbutan-2-yl)-N^3-methyl-N^3-((R)-1-phenylethyl)isophthalamide]",Ki,BACE1 enzyme; [1],42500 nM
same,Ki,BACE2 enzyme; [2],2550 nM
"CCC[C@H](O)[C@H](NC[C@@H](O)[C@H](Cc1ccccc1)NC(=O)c1cc(C)cc(C(=O)N(C)[C@H](C)c2ccccc2)c1)c1ccccc1 [inhibitor 3h, N^1-((2S,3R)-3-Hydroxy-4-(((1R,2S)-2-hydroxy-1-phenylpentyl)amino)-1-phenylbutan-2-yl)-N3,5-dimethyl-N^3-((R)-1-phenylethyl)isophthalamide]",Ki,"BACE1 enzyme; Ki (nM) BACE1, Table 2",18100 nM
same,Ki,"BACE2 enzyme; Ki (nM) BACE2, Table 2",905 nM
"COc1cccc(CNC[C@@H](O)[C@H](Cc2ccccc2)NC(=O)c2cccc(C(=O)N(C)[C@H](C)c3ccccc3)c2)c1 [inhibitor 3i, N^1-((2S,3R)-3-Hydroxy-4-((3-methoxybenzyl)ammo)-1-phenylbutan-2-yl)-N^3-methyl-N^3-((R)-1-phenylethyl)isophthalamide]",Ki,BACE1 enzyme; [3],2080 nM
same,Ki,BACE2 enzyme; read-out: BACE2 Ki,39.4 nM
same,Ki,BACE2 enzyme; [4],39.5 nM
"COc1cccc(CNC[C@@H](O)[C@H](Cc2ccccc2)NC(=O)c2cc(C)cc(C(=O)N(C)[C@H](C)c3ccccc3)c2)c1 [inhibitor 3j, N^1-((2S,3R)-3-Hydroxy-4-((3-methoxybenzyl)ammo)-1-phenylbutan-2-yl)-N3,5-dimethyl-N^3-((R)-1-phenylethyl)isophthalamide]",Ki,BACE1 enzyme; [3],837 nM
same,selectivity for BACE2 over BACE1,BACE2 enzyme,~60 fold
same,Ki,BACE2 enzyme; [4],14 nM
"C[C@H](c1ccccc1)N(C)C(=O)c1cccc(C(=O)N[C@@H](Cc2ccccc2)[C@H](O)CNCc2cccc(C(F)(F)F)c2)c1 [inhibitor 3k, N^1-((2S,3R)-3-Hydroxy-1-phenyl-4-((3-(trifluoromethyl)benzyl)amino)butan-2-yl)-N^3-methyl-N^3-((R)-1-phenylethyl)isophthalamide]",Ki,"BACE1 enzyme; Ki (nM) BACE1, Table 3",1350 nM
same,Ki,BACE2 enzyme; BACE2 Ki,35.7 nM
same,Ki,"BACE2 enzyme; Ki (nM) BACE2, Table 3",35.7 nM
same,selectivity for BACE2 over BACE1,BACE2 enzyme,37 fold
"Cc1cc(C(=O)N[C@@H](Cc2ccccc2)[C@H](O)CNCc2cccc(C(F)(F)F)c2)cc(C(=O)N(C)[C@H](C)c2ccccc2)c1 [inhibitor 3l, N^1-((2S,3R)-3-Hydroxy-1-phenyl-4-((3-(trifluoromethyl)benzyl)ammo)butan-2-yl)-N^3,5-dimethyl-N^3-((R)-1-phenylethyl)isophthalamide]",Ki,BACE1 enzyme; [3],815 nM
same,selectivity for BACE2 over BACE1,BACE2 enzyme,over 500 fold
same,Ki,BACE2 enzyme; [4],1.6 nM
"COc1cccc(CNC[C@@H](O)[C@H](Cc2ccccc2)NC(=O)c2cccc(C(=O)N(C)Cc3nc(C)co3)c2)c1 [inhibitor 3m, N^1-((2S,3R)-3-Hydroxy-4-((3-methoxybenzyl)amino)-1-phenylbutan-2-yl)-N^3-methyl-N^3-((4-methyloxazol-2-yl)methyl)isophthalamide]",Ki,"BACE1 enzyme; Ki (nM) BACE1, Table 3",68.8 nM
same,selectivity for BACE1 against BACE2,BACE1 enzyme,over 100 fold
same,Ki,"BACE2 enzyme; Ki (nM) BACE2, Table 3",7330 nM
"COc1cccc(CNC[C@@H](O)[C@H](Cc2ccccc2)NC(=O)c2cc(C)cc(C(=O)N(C)Cc3nc(C)co3)c2)c1 [inhibitor 3n, N^1-((2S,3R)-3-Hydroxy-4-((3-methoxybenzyl)amino)-1-phenylbutan-2-yl)-N^3,5-dimethyl-N^3-((4-methyloxazol-2-yl)methyl)isophthalamide]",Ki,"BACE1 enzyme; Ki (nM) BACE1, Table 3",25.4 nM
same,selectivity for BACE1 against BACE2,BACE1 enzyme,> 75 fold
same,Ki,"BACE2 enzyme; Ki (nM) BACE2, Table 3",1920 nM
